Results from the METLIN SMRT retention time set (Domingo-Almenara et al. 2019).

Test: gradient 5% acetonitrile 3 min, to 50% in 2 min, to 85% in 15 min, held 3 min, 100 µL/min
Details: column: Zorbax Extend-C18 2.1 x 50 mm; eluents: water / acetonitrile, 0.1% formic acid
In short: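 Each retention time is based on an adduct peak selected computationally and verified by manual inspection. Measurements used HPLC–quadrupole time-of-flight mass spectrometry in positive and negative ionization mode on mixtures of ~100 pure standards. Chromatography ran on a Zorbax Extend-C18 column (2.1 × 50 mm, 1.8 μm) at 100 μL/min with water and acetonitrile, each containing 0.1% formic acid, and dead and dwell volumes of 40 μL and 900 μL.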

SMILES	RP-LC retention time
CCN1CCN(C(=O)C2CCN(c3nnc(-c4ccc(OC)cc4)o3)CC2)CC1	593 s
Cc1ccc(NS(=O)(=O)c2cc3n(c2)CCCNC3=O)c(F)c1	663 s
CC1Cc2cc(-c3cc(CC(=O)NCCc4ccc(S(N)(=O)=O)cc4)no3)ccc2O1 (centres undefined)	701 s
C#CCn1c(=O)c2c(ncn2C)n(C)c1=O	629 s
Cc1nc2ccccc2nc1N1CCCC1	680 s
Cc1nn(-c2ccccc2)c(C)c1/C=N/N1CCN(Cc2ccccc2)CC1	687 s
Brc1ccc(-c2nnc(Cc3nc(-c4ccccc4)no3)o2)cc1	1100 s
Cc1ccc(NC(=O)C2CCCN2S(=O)(=O)c2cc3c(cc2C)NC(=O)CO3)c(C)c1 (centres undefined)	817 s
C/C(=C\c1csc(C)n1)[C@@H]1C[C@@H]2O[C@]2(C)CCC[C@H](C)[C@H](O)[C@@H](C)C(=O)C(C)(C)[C@@H](O)CC(=O)N1	707 s
Cc1ccc(-c2nc(N)n(C(=O)c3ccc(C(C)(C)C)cc3)n2)cc1	1280 s
Cc1nc(-c2cc(S(=O)(=O)N3CCC(C(=O)NCCN4CCCCCC4)CC3)c(C)s2)no1	666 s
Cc1noc(-c2ccc(OC3CN(C(=O)NCCc4ccccc4)C3)cc2)n1	880 s
COCCn1c(CC2CCN(S(=O)(=O)c3ccc(OC)cc3)C2)nc2cccnc21 (centres undefined)	668 s
CCOc1ccc(-n2cc(-c3nc(-c4ccccn4)no3)c3ccccc3c2=O)cc1	599 s
COc1ccc(C2=C(C)C(N3CCC(C(=O)NC4CCCC4)CC3)=NS2(=O)=O)cc1	780 s
CCC1Oc2ccc(S(=O)(=O)N3CCC(C(=O)Nc4ccccc4Cl)CC3)cc2NC1=O (centres undefined)	907 s
CN(C)c1ccc(-c2nc3cnccn3c2Nc2ccc(F)cc2)cc1	787 s
COc1cccc(-c2noc(Cn3ccn(-c4ccccc4C)c(=O)c3=O)n2)c1OC	798 s
Cc1ccc(C)c(C(=O)N2CCN(c3cc(C)nc(N4CCOCC4)n3)CC2)c1	637 s
Cc1ccc(NS(=O)(=O)c2c(C)sc(C)c2-c2cc(C(F)(F)F)on2)cc1C	1220 s
COc1ccc(-c2noc(Cc3nnc(-c4ccccc4)o3)n2)cc1OC	949 s
CCc1nnc(-c2ccc(S(=O)(=O)N3CCCCC3)o2)o1	824 s
CCOC(=O)c1ccc(N2C=C(C#N)S(=O)(=O)c3ccccc32)cc1	917 s
O=C(NCc1ccccc1C(F)(F)F)C1CCN(c2cncnc2N2CCCC2)CC1	695 s

More lines, now with the values ahead:

RP-LC retention time	SMILES
581 s	CCOc1ccccc1NC(=O)N1CCN(CCNC(=O)c2ccc3c(c2)OCO3)CC1
935 s	COc1ccc(Cl)cc1S(=O)(=O)N1CCCC(C(=O)NCCc2ccccc2)C1 (centres undefined)
826 s	COc1ccc(OC)c(NC(=O)N2C[C@@H](F)C[C@H]2C(=O)N2CCc3ccccc3C2)c1
990 s	Cc1noc(-c2nc(-c3cccc(F)c3)no2)n1
789 s	Cc1nc(OCC(=O)Nc2ccc(Cl)cc2F)c2ccccc2n1
968 s	O=C(NCc1ccccc1Cl)C(=O)c1cn(CC(=O)N2CCCC2)c2ccccc12
910 s	Cc1ccc(NC(=O)C2CCN(S(=O)(=O)c3ccc4c(c3)NC(=O)C(C)O4)CC2)cc1F (centres undefined)
675 s	COCC(C)(O)CNC(=O)C(=O)Nc1cccc(F)c1 (centres undefined)
971 s	O=C(NCc1c(F)cccc1F)C(=O)Nc1ccccc1Cl
910 s	Cc1nc(Cn2cccc2C(=O)Nc2ccc(C)c(C)c2)no1
593 s	O=C(Nc1ccc(Br)cc1F)N1CCc2nc[nH]c2C1
1100 s	COc1ccc(N2CCN(c3cc(SCC(=O)Nc4ccc(F)cc4)ncn3)CC2)cc1
656 s	Cc1cccc(NC(=O)N2CCc3nc(C)ncc3C2)c1
755 s	COc1cccc(C(=O)Nc2nnc(SC)s2)c1
1200 s	CCSc1ccccc1C(=O)Nc1cccc2ccc(OC)nc12
914 s	Cc1cc(C)n(-c2ccc(SCC(=O)N3CCCc4ccccc43)nn2)n1
701 s	CCOC(=O)CCc1c(C)c2c(O)cc(O)cc2oc1=O
838 s	CCc1ccc(OCc2ccccc2C(=O)Nc2ccc3nc(C)cc(N)c3c2)cc1
711 s	Cc1nn(-c2cc(N3CCOCC3)ncn2)c(C)c1CCC(=O)NCc1ccco1
565 s	CC1(C)CC(O)CC(C)(C)N1CC(O)COCCOc1ccc(F)cc1 (centres undefined)
